Article PMC7051184, “C9orf72 arginine-rich dipeptide repeat proteins disrupt karyopherin-mediated nuclear import” (eLife, 2020)

Columns and labels:
Type in all cases: biochemical, human
Conditions in all cases: Fig 5-suppl 3C, normalized to untreated HEK on same membrane
Rps25 = test: DPR aggregation assay and western blot, Rps25;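 further: RNA rows contain added 20 µg total HEK RNA while no-RNA rows lack it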
Description: Supplement elife-51685-fig5-data1.xlsx, sheet "Figure 5-figure suppl 3" | column: Rps25

RanGAP1 = test: DPR aggregation assay and western blot, RanGAP1
Protocol: (§1) Supernatant and pellet fractions (for all 5 DPRs, and control/buffer only) were prepared as in the nuclear transport assays, by adding 100 µM 10mers to 2.5 mg/ml HEK lysate in 100 µL TRB. Supernatants were boiled in Laemmli (BioRad) for 5 min. Pellets were boiled for 15 min followed by sonication in order to fully disperse aggregates for SDS-PAGE. Equal volumes of supernatant and pellet fractions were run on 4–12% Bolt Bis-Tris Plus gels (ThermoFisher), transferred to nitrocellulose membrane using an iBlot2 dry blotting system (ThermoFisher). Protein loading was analyzed by BLOT-Faststain (G-biosciences, St. Louis, MO), according to the manufacterers’ instructions. For immunodetection, membranes were blocked with 5% non-fat milk in TBST and probed by sequential incubation with the primary antibodies as detailed in the table below. Detection was by HRP-conjugated secondary antibodies/chemiluminescence using an ImageQuant LAS 4000 system (GE, Chicago, IL). To permit sequential probing of membranes without stripping, signals were quenched by incubation with prewarmed 30% H20_2 for 20 min ([Sennepin et al., 2009]). Band intensities were measured by ImageQuant software. For pellet vs. supernatant fractions, all were expressed as percent untreated control. For blots in Figure 1E, samples were run on 4–20% SDS PAGE minigels (ThermoFisher) and blotted to PVDF membranes (Immun-Blot PVDF, Bio-Rad) using the Bio-Rad TransBlot Turbo apparatus, and probed as above. The chemiluminescence signal was captured with a Bio-Rad ChemiDoc XRS+ digital imaging system.

transportin-1 (Tnpo1) = test: DPR aggregation assay and western blot, Tnpo1;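 further: RNA rows contain added 20 µg total HEK RNA while no-RNA rows lack it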
Protocol: as §1

RPS6 = test: DPR aggregation assay and western blot, RPS6;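 further: RNA rows contain added 20 µg total HEK RNA while no-RNA rows lack it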
Protocol: as §1

Ran = test: DPR aggregation assay and western blot, Ran;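 further: RNA rows contain added 20 µg total HEK RNA while no-RNA rows lack it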
Protocol: as §1

importin β = test: DPR aggregation assay and western blot, ImpB;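 further: RNA rows contain added 20 µg total HEK RNA while no-RNA rows lack it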
Protocol: as §1

TDP-43 = test: DPR aggregation assay and western blot, TDP-43
Protocol: as §1

[1] = Pellet, no RNA (Untreated), blot 1
[2] = Pellet, no RNA (Untreated), blot 2
[3] = Supernatant, no RNA (Untreated), blot 1
[4] = Supernatant, no RNA (Untreated), blot 2

With “GA10: Synthetic 10-mer GA dipeptide repeat with C-terminal lysine and cysteine (GAGAGAGAGAGAGAGAGAGAKC)” the “Rps25 band density, % untr control” value (Rps25; Pellet, RNA, blot 1) was 48.52%, the “Rps25 band density, % untr control” value (Rps25; Pellet, RNA, blot 2) was 61.57% and the “Rps25 band density, % untr control” value (Rps25; [1]) was 84.83%. The “Rps25 band density, % untr control” value (Rps25; [2]) was 128.35%, the “Rps25 band density, % untr control” value (Rps25; Supernatant, RNA, blot 1) was 121.04% and the “Rps25 band density, % untr control” value (Rps25; Supernatant, RNA, blot 2) was 82.85%. For the same substance, the “Rps25 band density, % untr control” value (Rps25; [3]) was 112.04%, the “Rps25 band density, % untr control” value (Rps25; [4]) was 76.84% and the “RanGAP1 band density, % untr control” value (RanGAP1; Pellet, RNA, blot 1) was 93.93%. The “RanGAP1 band density, % untr control” value (RanGAP1; Pellet, RNA, blot 2) was 89.10%, the “RanGAP1 band density, % untr control” value (RanGAP1; [1]) was 87.31% and the “RanGAP1 band density, % untr control” value (RanGAP1; [2]) was 80.44%. The “RanGAP1 band density, % untr control” value (RanGAP1; Supernatant, RNA, blot 1) was 83.26%, the “RanGAP1 band density, % untr control” value (RanGAP1; Supernatant, RNA, blot 2) was 119.18% and the “RanGAP1 band density, % untr control” value (RanGAP1; [3]) was 131.44%. The “RanGAP1 band density, % untr control” value (RanGAP1; [4]) was 105.30%, the “TNPO1 band density, % untr control” value (transportin-1 (Tnpo1); Pellet, RNA, blot 1) was 84.30% and the “TNPO1 band density, % untr control” value (transportin-1 (Tnpo1); Pellet, RNA, blot 2) was 68.79%. For the same substance, the “TNPO1 band density, % untr control” value (transportin-1 (Tnpo1); [1]) was 107.97%, the “TNPO1 band density, % untr control” value (transportin-1 (Tnpo1); [2]) was 107.46% and the “TNPO1 band density, % untr control” value (transportin-1 (Tnpo1); Supernatant, RNA, blot 1) was 64.64%. The “TNPO1 band density, % untr control” value (transportin-1 (Tnpo1); Supernatant, RNA, blot 2) was 100.29%, the “TNPO1 band density, % untr control” value (transportin-1 (Tnpo1); [3]) was 66.29% and the “TNPO1 band density, % untr control” value (transportin-1 (Tnpo1); [4]) was 92.01%. The “Rps6 band density, % untr control” value (RPS6; Pellet, RNA, blot 1) was 45.85%, the “Rps6 band density, % untr control” value (RPS6; Pellet, RNA, blot 2) was 60.48% and the “Rps6 band density, % untr control” value (RPS6; [1]) was 113.52%. The “Rps6 band density, % untr control” value (RPS6; [2]) was 119.87%, the “Rps6 band density, % untr control” value (RPS6; Supernatant, RNA, blot 1) was 64.65% and the “Rps6 band density, % untr control” value (RPS6; Supernatant, RNA, blot 2) was 73.01%. The “Rps6 band density, % untr control” value (RPS6; [3]) was 90.06%, the “Rps6 band density, % untr control” value (RPS6; [4]) was 67.32% and the “Ran band density, % untr control” value (Ran; Pellet, RNA, blot 1) was 129.05%. The “Ran band density, % untr control” value (Ran; Pellet, RNA, blot 2) was 192.76%, the “Ran band density, % untr control” value (Ran; [1]) was 79.12% and the “Ran band density, % untr control” value (Ran; [2]) was 116.78%. The “Ran band density, % untr control” value (Ran; Supernatant, RNA, blot 1) was 116.22%, the “Ran band density, % untr control” value (Ran; Supernatant, RNA, blot 2) was 99.76% and the “Ran band density, % untr control” value (Ran; [3]) was 117.84%. For the same substance, the “Ran band density, % untr control” value (Ran; [4]) was 105.67%, the “ImpB band density, % untr control” value (importin β; Pellet, RNA, blot 1) was 90.07% and the “ImpB band density, % untr control” value (importin β; Pellet, RNA, blot 2) was 91.42%. The “ImpB band density, % untr control” value (importin β; [1]) was 90.15%, the “ImpB band density, % untr control” value (importin β; [2]) was 102.12% and the “ImpB band density, % untr control” value (importin β; Supernatant, RNA, blot 1) was 78.71%. The “ImpB band density, % untr control” value (importin β; Supernatant, RNA, blot 2) was 123.36%, the “ImpB band density, % untr control” value (importin β; [3]) was 89.10% and the “ImpB band density, % untr control” value (importin β; [4]) was 114.58%. For the same substance, the “TDP43 band density, % untr control” value (TDP-43; Pellet, RNA, blot 1) was 112.48%, the “TDP43 band density, % untr control” value (TDP-43; Pellet, RNA, blot 2) was 99.51% and the “TDP43 band density, % untr control” value (TDP-43; [1]) was 116.61%. The “TDP43 band density, % untr control” value (TDP-43; [2]) was 120.53%, the “TDP43 band density, % untr control” value (TDP-43; Supernatant, RNA, blot 1) was 88.02% and the “TDP43 band density, % untr control” value (TDP-43; Supernatant, RNA, blot 2) was 100.78%. The “TDP43 band density, % untr control” value (TDP-43; [3]) was 86.33% and the “TDP43 band density, % untr control” value (TDP-43; [4]) was 98.73%.
